In patent publication US20130253022A1 (FOX CHASE CHEMICAL DIVERSITY CENTER, INC., priority 2010, published 2013):

Legend:
hippocampal neurons = experiment: Heavy metal toxicity in hippocampal cultures, neuronal viability (CFDA); details: test concentration of metal ions 10 μM, medium without antioxidants
Source text: All compounds were screened with dissociated hippocampal cultures derived from embryonic day 18 rats as the primary test system. With this preparation, primary neurons were used to test for prevention of heavy metal toxicity by the disclosed compounds. In brief, hippocampal tissue was obtained commercially through Brain Bits (Springfield, Ill.) and cultures prepared as previously described (Brewer, G. J. Serum-free B27/neurobasal medium supports differentiated growth of neurons from the striatum, substantia nigra, septum, cerebral cortex, cerebellum and dentate gyms, J. Neurosci. Res., 1995, 42, 674-683). The hippocampal neurons were platted at low density (10,000 cell/well) in a 96-well format and maintained in serum-free medium consisting of Neurobasal Medium supplemented with B27 and GlutaMAX (Gibco). Pre-coated poly-L-lysine coated plates are used because of the preferential adherence and survival of hippocampal neurons on this matrix support.
Heavy metal toxicity is associated with the occurrence of seizures (Mathie et al. Zinc and copper: pharmacological probes and endogenous modulators of neuronal excitability. Pharmacol. Ther. 2006, 111, 567-583). […] To establish the dose-dependency of test agents, day 18 hippocampal cultures were utilized to study the toxicity produced after treatment with the heavy metals and neuroprotection after treatment with test compounds. […] Prior to treatment, the B27/Neural Basal media of the cultures were replaced with B27 neural basal medium without antioxidants for 18 hours. […] Further, the removal of antioxidants in the medium was performed to obtain a significant and reproducible toxic signal for heavy metal treatment of the hippocampal neurons.
Toxicity produced by heavy metals is measured by decreases in neuronal viability. Carboxyfluorescein (CFDA) was used a vital stain for all cell toxicity and neuroprotection studies. With the use of the CytoFluor fluorimeter, the CFDA assay was employed to assess the viability of neurons. CFDA is a dye that becomes fluorescent upon cell entry and cleavage by cytosolic esterases (Petroski and Geller. Selective labeling of embryonic neurons cultures on astrocyte monolayers with 5(6)-carboxyfluorescein diacetate [CFDA]. J. Neurosci. Methods 1994, 52, 23-32). Neuronal specificity is obtained relative to astrocytes because the cleaved dye is extruded extracellularlly by glia with time, while dye in neurons remains intracellular.

Hippocampal Cultures [1] = experiment: Neuroprotection from glutamate excitotoxicity, propidium iodide (cell death) assay; type: cell-based; details: Rattus norvegicus, read-out: NP from Glutamate PI EC50
Source text: (§1) Cell cultures: All compounds are screened with dissociated hippocampal cultures derived from embryonic day 18 rats as the primary test system. With this preparation, primary neurons are used to test for toxicity as well as neuroprotection in a highly relevant experimental system to epilepsy. In brief, hippocampal tissue are obtained commercially through Brain Bits (Springfield, Ill.) and cultures prepared as previously described by Brewer (Brewer, G. J. Serum-free B27/neurobasal medium supports differentiated growth of neurons from the striatum, substantia nigra, septum, cerebral cortex, cerebellum and dentate gyms, J. Neurosci. Res. 1995, 42, 674-683). The hippocampal neurons are platted at low density (10,000 cell/well) in a 96-well format and maintained in serum-free medium consisting of Neurobasal Medium supplemented with B27 and GlutaMAX (Gibco). Pre-coated poly-L-lysine coated plates are used because of the preferential adherence and survival of hippocampal neurons on this matrix support.
(§2) Potent neuroprotection is the distinguishing characteristic that separates this program's anticonvulsants from all other commercial drugs for epilepsy. The experimental details and the rationale for the implemented assays are essential in differentiating these compounds from that of others. The central objective of all neuroprotective assays was their relevancy to excitotoxicity and oxidative stress related to epilepsy. Both the amount of glutamate and hydrogen peroxide used in the assays, as well as the time of treatment and duration of the experiment, were designed to be relevant to epilepsy. Further, all time parameters employed in these studies were empirically determined to be within the limits of reversible toxic events, yet using amounts of glutamate and hydrogen peroxide that were relevant to the disease. In regard to glutamate toxicity, a critical feature was the duration of treatment of the hippocampal neurons. The rational for using a short 5 min treatment with glutamate was based on the observation of Randall and Thayer (Randall, R. D.; Thayer, S. A. Glutamate-induced calcium transient triggers calcium overload and neurotoxicity in rat hippocampal neurons, J. Neurosci. 1992, 12, 1882-1895). […] The rationale is that this intense burst of glutamate and resulting calcium overload is relevant to seizures and therefore was important data to capture in the screening assay. The amount of glutamate (30 μM) employed in our screening was based on the basal levels of glutamate observed in microdialysis measurements of hippocampus from epileptogenic patients (Cavus et al. Decreased hippocampal volume on MRI is associated with increased extracellular glutamate in epilepsy patients, Epilepsia, 2008, 49, 1358-1366). In regard to hydrogen peroxide, the amount employed (10 μM) was detected in the hippocampus of rats after kainate-induced status epilepticus (Jarrett et. al., Mitochondrial DNA damage and impaired base excision repair during epileptogenesis, Neurobiol. Dis. 2008, 30, 130-138). To produce neural damage and death with these amounts of glutamate and hydrogen peroxide, the cultures were changed to a medium with significant depletion of antioxidant components in the defined medium supplement B-27 just prior to treatment with the compounds. This was performed to obtain a significant and reproducible toxic signal in the hippocampal neurons and because loss of antioxidant control may be a component of epileptogenesis (Waldbaum and Patel, Mitochondria, oxidative stress and temporal lobe epilepsy, Epilepsy Res. 2010 88, 23-45; Wu et al., Mitochondrial DNA mutation-elicited oxidative stress, oxidative damage, and altered gene expression in cultured cells of patients with MERRF syndrome, Mol. Neurobiol. 2010, 41, 256-266). Neuroprotection studies with hydrogen peroxide were conducted with cultures that were between day 12 and day 18. Studies of neuroprotection glutamate were conducted between day 19 and day 22. […]

Hippocampal Cultures [2] = experiment: Neuroprotection from glutamate excitotoxicity, CFDA (neuronal viability) assay; type: cell-based; details: Rattus norvegicus, read-out: NP from Glutamate CFDA EC50
Source text: as §1
as §2, with “compounds.” for “compounds. This was performed to obtain a significant and reproducible toxic signal in the hippocampal neurons and because loss of antioxidant control may be a component of epileptogenesis (Waldbaum and Patel, Mitochondria, oxidative stress and temporal lobe epilepsy, Epilepsy Res. 2010 88, 23-45; Wu et al., Mitochondrial DNA mutation-elicited oxidative stress, oxidative damage, and altered gene expression in cultured cells of patients with MERRF syndrome, Mol. Neurobiol. 2010, 41, 256-266). Neuroprotection studies with hydrogen peroxide were conducted with cultures that were between day 12 and day 18. Studies of neuroprotection glutamate were conducted between day 19 and day 22.”

Hippocampal Cultures [3] = experiment: Neuroprotection from hydrogen peroxide (oxidative stress), propidium iodide assay; type: cell-based; details: Rattus norvegicus, read-out: NP from Hydrogen Peroxide PI EC50
Source text: as §1, §2

Hippocampal Cultures [4] = experiment: Neuroprotection from hydrogen peroxide (oxidative stress), CFDA assay; type: cell-based; details: Rattus norvegicus, read-out: NP from Hydrogen Peroxide CFDA EC50
Source text: as §1, §2

[5] = test system: MES-induced seizure spread; experiment: Maximal electroshock seizure (MES) test, mouse; type: in vivo, mice
Experimental: (§3) Seizure-related assays, Maximal electroshock test: The most definitive assay for anti-seizure activity is the maximal electroshock (MES) test (Swinyard, E. A. Laboratory evaluation of antiepileptic drugs: review of laboratory methods, Epilepsia, 1969, 10, 107-119). […] With both rodent assays, the duration of action is of high importance as well as the potency of the response.
(§4) Methods to measure anticonvulsant activity: All tests were conducted by the Anticonvulsant Screening Program (ASP) of the National Institute of Neurological Disease and Stroke at the National Institutes of Health.
(§5) The Maximal Electroshock Seizure (MES) or Maximal Seizure Pattern Test: The MES is a model for generalized tonic-clonic seizures (Putnam and Merritt. Experimental determination of the anticonvulsant properties of some phenyl derivatives. Science 1937, 85, 113-118). It is highly reproducible with consistent endpoints. The behavioral and electrographic seizures generated in this model are consistent with the human disorder. This model identifies those compounds which prevent seizure spread.
(§6) In the MES test, an electrical stimulus of 0.2 s in duration (50 mA in mice and 150 mA in rat at 60 Hz) is delivered via corneal electrodes primed with an electrolyte solution containing an anesthetic agent. Mice are tested at 30 minutes and 4 hours following doses of 30, 100 and 300 mg/kg of test compound. Test compounds are administered intraperitoneally to the mice. Rats are tested at time intervals between 0.25 and 4 hours following a standard oral dose of 30 mg/kg. Abolition of the hindlimb tonic extensor component indicates the test compound's ability to inhibit MES-induced seizure spread.

[6] = test system: MES-induced seizure spread; experiment: Maximal electroshock seizure (MES) test, rat; type: in vivo, rats; details: po
Experimental: as §3, §4, §5, §6

6-Hz psychomotor seizure = experiment: 6 Hz psychomotor seizure test, mouse; type: in vivo, mice; details: ip
Experimental: Methods to measure anticonvulsant activity: All tests were conducted by the Anticonvulsant Screening Program (ASP) of the National Institute of Neurological Disease and Stroke at the National Institutes of Health. The 6 Hz Seizure Test: Compounds were further tested in the 6-Hz psychomotor seizure model. (Barton et al. Pharmacological characterization of the 6 Hz psychomotor seizure model of partial epilepsy. Epilepsy Res. 2001, 47, 217-227). This model is used to detect […] that may be useful for the treatment of therapy-resistant partial seizures. For this test, an alternative electrical stimulation paradigm is used with a low frequency (6 Hz), long duration (3 seconds) corneal stimulation. The seizure evoked by this low frequency stimulation is characterized by immobility, forelimb clonus, Straub tail and facial automatisms. Mice are tested from 15 min to 4 hours following an intraperitoneal dose of 100 mg/kg. Abolition of the clonic seizures indicates the ability of a compound to prevent partial or psychomotor seizures.

[7] = test system: pentylenetetrazol-induced clonic seizures; experiment: Subcutaneous pentylenetetrazol seizure test (scPTZ), mouse; type: in vivo, Carworth Farms No. 1 mice; details: pentylenetetrazol 85 mg/kg s.c., test compound intraperitoneally, read-out: Mouse PTZ ED50, s.c.
Experimental: Methods to measure anticonvulsant activity: All tests were conducted by the Anticonvulsant Screening Program (ASP) of the National Institute of Neurological Disease and Stroke at the National Institutes of Health. The subcutaneous pentylenetetrazol (metrazol) seizure test (scPTZ). This model primarily identifies compounds that raise seizure threshold. The behavioral seizure produced is not typical of absence epilepsy but clonic in nature. With some minor exceptions, the pharmacological profile of the scPTZ seizure model is consistent with the human condition. The scPTZ test utilizes a dose of pentylenetetrazol (85 mg/kg in Carworth Farms No. 1 mice and 70 mg/kg in Sprague-Dawley rats). This produces clonic seizures lasting for a period of at least five seconds in 97 percent of animals tested. At the anticipated time of testing the convulsant is administered subcutaneously. The test compound is administered intraperitoneally in mice and orally in rats. Animals are observed over a 30 minute period. Absence of clonic spasms in the observed time period indicates a compound's ability to abolish the effect of pentylenetetrazol on seizure threshold (Swinyard E A. Laboratory evaluation of antiepileptic drugs: review of laboratory methods. Epilepsia, 1969, 10, 107-119).

[8] = 30 μM glutamate 5 min, hippocampal cultures, 4 hour test period
[9] = 10 μM hydrogen peroxide, hippocampal cultures, 4 hour test period

Q: For `O.O.O.O.O.O.[Cl-].[Cl-].[Co+2]` [Cobalt Chloride hexahydrate], which “Loss of neuronal viability from metal” value (hippocampal neurons) is on record?
A: 36%

Q: `CC(=O)[O-].CC(=O)[O-].O.[Cu+2]` [Copper Acetate monohydrate] was tested. Which “Loss of neuronal viability from metal” value (hippocampal neurons) did it give?
A: 47%

Q: For `NS(=O)(=O)NCC(F)c1ccccc1F` (stereo not drawn) [Example 3, 2-Fluoro-2-(2-fluoro-phenyl)-ethylsulfamide], which EC50 (Hippocampal Cultures [1]) is on record?
A: 100 pM

Q: What about the EC50 (Hippocampal Cultures [2]) of the same compound?
A: 3000 pM

Q: And the EC50 (Hippocampal Cultures [3]; 4 h)?
A: 10 pM

Q: And the EC50 (Hippocampal Cultures [4]; 4 h)?
A: 10 pM

Q: For `COc1ccccc1C(F)(F)CNS(N)(=O)=O` [Example 4, 2,2-Difluoro-2-(2-methoxyphenyl)-ethyl-1-sulfamide], which EC50 (Hippocampal Cultures [1]) is on record?
A: 1000 pM

Q: And the EC50 (Hippocampal Cultures [3]; 4 h)?
A: 1000 pM

Q: And the EC50 (Hippocampal Cultures [4]; 4 h)?
A: 100 pM

Q: For `NS(=O)(=O)NCC(F)(F)c1ccccc1` [Example 5, 2,2-difluoro-2-phenyl-ethyl-1-sulfamide], which EC50 (Hippocampal Cultures [1]; [8]) is on record?
A: 100 pM

Q: And the EC50 (Hippocampal Cultures [2]; [8])?
A: 100 pM

Q: And the EC50 (Hippocampal Cultures [3]; [9])?
A: 30 pM

Q: What about the EC50 (Hippocampal Cultures [4]; [9]) of the same compound?
A: 100 pM

Q: And the “Duration of action MES” value ([5]; Mouse Maximal Electroshock (MES) test at 100 mg/kg, i.p.)?
A: 4 h

Q: What about the ED50 ([5]; ip, mouse) of the same compound?
A: 49 mg/kg

Q: What about the ED50 [6] of the same compound?
A: 26 mg/kg

Q: What about the ED50 (6-Hz psychomotor seizure) of the same compound?
A: 16 mg/kg

Q: And the ED50 [7]?
A: 41 mg/kg

Q: Which results are given for `NS(=O)(=O)NCC(F)(F)c1csc2ccccc12` [Example 6, 2-Benzo[b]thiophen-3-yl-2,2-difluoro-ethyl sulfamide]?
A: EC50 (Hippocampal Cultures [1]): 100 pM; EC50 (Hippocampal Cultures [2]): 100 pM; EC50 (Hippocampal Cultures [3]; 4 h): 1000 pM; EC50 (Hippocampal Cultures [4]; 4 h): 100 pM

Q: Which “Loss of neuronal viability from metal” value (hippocampal neurons) does the source give for `O.O.O.O.O.O.O=S(=O)([O-])[O-].[Fe+2]` [Iron sulfate hexahydrate] here?
A: 31%

Q: How did the “Loss of neuronal viability from metal” value (hippocampal neurons) turn out when `O.O.O.O.O.O.[Cl][Ni][Cl]` [Nickel Chloride hexahydrate] was run?
A: 33%
